Data as given in PubChem BioAssay AID1963958 (Molecular Pharmacology Branch, DTP, NCI, 2024).

Test system: MDA-MB-231 multicell spheroids, viability
Assay: Anticancer human tumor MDA-MB-231 cell line growth inhibition [PI3K];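 note: spheroids exposed to agents for seven days before reading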;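 for viability, T/C: percent of vehicle control luminescence with DMSO treated spheroids as 100%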
Conditions: for IC50: curve of first compound; for viability, T/C: stronger effect = lower value
Method in brief: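 Tumor cells were combined with HUVEC and MSCs into spheroids, then dosed with PI3K-inhibitor combinations over half-log ranges capped near clinical Cmax or 10 microM.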

[1] = second compound 0.0316 µM, first compound 0.0316 µM
[2] = second compound 0.0316 µM, first compound 0.1 µM
[3] = second compound 0.0316 µM, first compound 0.316 µM
[4] = second compound 0.0316 µM, first compound 1 µM
[5] = second compound 0.0316 µM, first compound 3.16 µM
[6] = second compound 0.0316 µM, first compound 10 µM
[7] = second compound 0.1 µM, first compound 0.0316 µM
[8] = second compound 0.1 µM, first compound 0.1 µM
[9] = second compound 0.1 µM, first compound 0.316 µM
[10] = second compound 0.1 µM, first compound 1 µM
[11] = second compound 0.1 µM, first compound 3.16 µM
[12] = second compound 0.1 µM, first compound 10 µM
[13] = second compound 0.316 µM, first compound 0.0316 µM
[14] = second compound 0.316 µM, first compound 0.1 µM
[15] = second compound 0.316 µM, first compound 0.316 µM
[16] = second compound 0.316 µM, first compound 1 µM
[17] = second compound 0.316 µM, first compound 3.16 µM
[18] = second compound 0.316 µM, first compound 10 µM
[19] = second compound 1 µM, first compound 0.0316 µM
[20] = second compound 1 µM, first compound 0.1 µM
[21] = second compound 1 µM, first compound 0.316 µM
[22] = second compound 1 µM, first compound 1 µM
[23] = second compound 1 µM, first compound 3.16 µM
[24] = second compound 1 µM, first compound 10 µM
[25] = second compound 3.16 µM, first compound 0.0316 µM
[26] = second compound 3.16 µM, first compound 0.1 µM
[27] = second compound 3.16 µM, first compound 0.316 µM
[28] = second compound 3.16 µM, first compound 1 µM
[29] = second compound 3.16 µM, first compound 3.16 µM
[30] = second compound 3.16 µM, first compound 10 µM
[31] = second compound 10 µM, first compound 0.0316 µM
[32] = second compound 10 µM, first compound 0.1 µM
[33] = second compound 10 µM, first compound 0.316 µM
[34] = second compound 10 µM, first compound 1 µM
[35] = second compound 10 µM, first compound 3.16 µM
[36] = second compound 10 µM, first compound 10 µM

For `C#Cc1c(F)ccc2cc(O)cc(-c3ncc4c(N5CC6CCC(C5)N6)nc(OCC56CCCN5CC(F)C6)nc4c3F)c12` (centres undefined) + Cc1nc(NC(=O)N2CCCC2C(N)=O)sc1-c1ccnc(C(C)(C)C(F)(F)F)c1, the IC50 (second compound 0.0316 µM) was over 10 µM, the IC50 (second compound 0.1 µM) was 7.62 µM and the IC50 (second compound 0.316 µM) was 5.67 µM. For the same molecule, the IC50 (second compound 1 µM) was 1.7 µM, the IC50 (second compound 3.16 µM) was 0.847 µM and the IC50 (second compound 10 µM) was 0.23 µM. It also gave a viability, T/C [1] of 106%, a viability, T/C [2] of 96% and a viability, T/C [3] of 101%. The viability, T/C [4] was 68.3%, the viability, T/C [5] was 75.6% and the viability, T/C [6] was 54.9%. It also gave a viability, T/C [7] of 88.8%, a viability, T/C [8] of 87.6% and a viability, T/C [9] of 85.4%. It also gave a viability, T/C [10] of 73%, a viability, T/C [11] of 65.5% and a viability, T/C [12] of 45.2%. It also gave a viability, T/C [13] of 77.7%, a viability, T/C [14] of 82.8% and a viability, T/C [15] of 69.4%. It also gave a viability, T/C [16] of 60.4%, a viability, T/C [17] of 62% and a viability, T/C [18] of 42%. For the same molecule, the viability, T/C [19] was 74.1%, the viability, T/C [20] was 69.8% and the viability, T/C [21] was 67.3%. The viability, T/C [22] was 55.2%, the viability, T/C [23] was 43.3% and the viability, T/C [24] was 33.3%. It also gave a viability, T/C [25] of 69.6%, a viability, T/C [26] of 65.5% and a viability, T/C [27] of 53.4%. For the same molecule, the viability, T/C [28] was 49.6%, the viability, T/C [29] was 42% and the viability, T/C [30] was 28%. The viability, T/C [31] was 64.2%, the viability, T/C [32] was 58.4% and the viability, T/C [33] was 45.3%. The viability, T/C [34] was 36.9%, the viability, T/C [35] was 32% and the viability, T/C [36] was 18.1%.
With `C=CC(=O)N1CCN(c2nc(=O)n(-c3c(C)ccnc3C(C)C)c3nc(-c4c(O)cccc4F)c(F)cc23)C(C)C1` (centres undefined) + Cc1nc(NC(=O)N2CCCC2C(N)=O)sc1-c1ccnc(C(C)(C)C(F)(F)F)c1 the IC50 (second compound 0.0316 µM) was over 10 µM, the IC50 (second compound 0.1 µM) was over 10 µM and the IC50 (second compound 0.316 µM) was over 10 µM. The IC50 (second compound 1 µM) was over 10 µM, the IC50 (second compound 3.16 µM) was 6.06 µM and the IC50 (second compound 10 µM) was 3.95 µM. It also gave a viability, T/C [1] of 97.5%, a viability, T/C [2] of 98.3% and a viability, T/C [3] of 96.4%. For the same molecule, the viability, T/C [4] was 103%, the viability, T/C [5] was 120% and the viability, T/C [6] was 102%. For the same molecule, the viability, T/C [7] was 86.5%, the viability, T/C [8] was 85.4% and the viability, T/C [9] was 93.2%. For the same molecule, the viability, T/C [10] was 108%, the viability, T/C [11] was 109% and the viability, T/C [12] was 88.4%. It also gave a viability, T/C [13] of 74.8%, a viability, T/C [14] of 79.1% and a viability, T/C [15] of 79%. For the same molecule, the viability, T/C [16] was 82.8%, the viability, T/C [17] was 87.9% and the viability, T/C [18] was 66.9%. The viability, T/C [19] was 63%, the viability, T/C [20] was 66.5% and the viability, T/C [21] was 68.2%. For the same molecule, the viability, T/C [22] was 71.1%, the viability, T/C [23] was 62.1% and the viability, T/C [24] was 48.5%. It also gave a viability, T/C [25] of 66.3%, a viability, T/C [26] of 66.8% and a viability, T/C [27] of 68%. For the same molecule, the viability, T/C [28] was 65.4%, the viability, T/C [29] was 60.1% and the viability, T/C [30] was 42.1%. It also gave a viability, T/C [31] of 67.6%, a viability, T/C [32] of 60.3% and a viability, T/C [33] of 60%. The viability, T/C [34] was 58.5%, the viability, T/C [35] was 54.7% and the viability, T/C [36] was 36.7%.
